Reference: US20230234931A1, “NON-STEROIDAL ANTI-INFLAMMATORY COMPOUNDS” (University of Houston System, priority 2022, published 2023)

Experiments:
COX-2-10aa-mPGES-1 = target: T1, COX-2-10aa-mPGES-1 (Homo sapiens, UniProt O14684+P35354); assay: Inhibition of PGE2 production in HEK293 cells expressing Enzymelink COX-2-10aa-mPGES-1; assay type: cell-based; conditions: HEK-293 cells, 1, 3 and 10 μM, arachidonic acid 0.5 μM, PGE2 by ELISA, compared with NS-398 (FIG. 9)
T1 construct: COX-2 (fusion partner); gene PTGS2, human entry P35354 by own knowledge; expressed in transfected cells; host or cells: HEK293
T1 sequence (P35354+O14684 with tags, fused parts or gaps): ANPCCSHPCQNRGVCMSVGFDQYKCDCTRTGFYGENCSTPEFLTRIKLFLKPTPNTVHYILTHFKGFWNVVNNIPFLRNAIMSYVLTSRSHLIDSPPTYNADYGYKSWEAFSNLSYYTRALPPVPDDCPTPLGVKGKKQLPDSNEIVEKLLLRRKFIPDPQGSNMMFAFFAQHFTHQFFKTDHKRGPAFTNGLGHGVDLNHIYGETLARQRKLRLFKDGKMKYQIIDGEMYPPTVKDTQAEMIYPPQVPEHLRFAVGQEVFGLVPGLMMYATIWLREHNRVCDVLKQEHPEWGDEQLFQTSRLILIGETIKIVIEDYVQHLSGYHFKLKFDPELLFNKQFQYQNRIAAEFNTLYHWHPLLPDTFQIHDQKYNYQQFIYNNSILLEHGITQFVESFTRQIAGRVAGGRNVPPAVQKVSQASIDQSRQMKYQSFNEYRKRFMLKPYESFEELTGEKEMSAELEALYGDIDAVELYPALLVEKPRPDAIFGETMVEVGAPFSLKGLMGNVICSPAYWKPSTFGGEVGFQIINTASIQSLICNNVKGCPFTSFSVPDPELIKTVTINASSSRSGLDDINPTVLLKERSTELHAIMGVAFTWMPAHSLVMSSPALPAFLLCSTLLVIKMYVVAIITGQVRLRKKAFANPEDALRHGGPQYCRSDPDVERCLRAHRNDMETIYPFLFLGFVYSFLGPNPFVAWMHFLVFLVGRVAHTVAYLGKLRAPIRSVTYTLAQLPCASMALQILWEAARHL
Protocol: FIG. 9. Dose response curves for the effects of the synthesized derivatives on mPGES-1-synthesized inflammatory PGE2, compared with COX-2 inhibitor. HEK-293 cells expressing inflammatory PGE-producing Enzymelink, COX-2-10aa-mPGES-1 described previously (11) were treated with increasing concentrations (1 μM, 3 μM, and 10 μM), of the derivatives. Arachidonic acid (0.5 μM) was added to initiate the biosynthesis of PGE2 through COX-2 and mPGES-1 catalysis (11). The produced PGE2 was detected by ELISA (11). COX-2 inhibitor, NS-398 was used as positive control. An unrelated chemical compound (#6) was used as a negative control.
COX linked PG synthase cDNAs of the hybrid enzyme COX-2 C-terminus was linked to the PGES N-terminus with 10 amino acids (COX-2-10aa-PGES) was constructed by a polymerase chain reaction (PCR) cloning approach. The resultant cDNA was sub-cloned into pcDNATM3.1 vectors containing a cytomegalovirus immediate-early promoter (11, 16).
The recombinant enzyme was expressed in HEK293 cells. […] The enzyme expressions were determined by a Western blot analysis. […]
The effect of compounds that inhibited PGE2 production were determined by HPLC. […]
The inhibitory effect on PGE2 production by mPGES-1 was determined by using previously developed HEK293 cells expressing our engineered Enzymelink, COX-2-10aa-mPGES-1.

PC-3 cells = assay: Cancer cell PC-3 migration assay (gap size); assay type: cell-based; conditions: after 39 hours of culture, compared with NS-398
Protocol: FIG. 10A-C. Anti-inflammatory and anti-cancer activities in cell cultural conditions. PC-3 migration assay treated with the lead compound #10. FIG. 10A The representative images of the PC-3 migration at 0 hour (left) and 39 hours (right) with DMSO, NS-398, and #10. FIG. 10B The time-course gap size of the PC-3 migration. The gap size was obtained using NIS-element software (NIKON). n=6. FIG. 10C Quantitative and significant analyses.
One day before the experiment, about 8.4×10^6 of PC-3 cells were cultured in 6-well plates with 2 mL of growth medium. A marker line was drawn on the outside plates to identify viewing spots. The medium was pre-warmed, and each treatment (DMSO, NS-398, and #10) was mixed with the medium. The cells were washed with PBS and replaced with 1.5 mL of medium containing a treatment, and observed at 0, 15, 24, and 39-hour points. NIS-element AR 3.0 (Nikon Instruments Inc.) software was used to take images at different time points with 10× magnification, and to measure gap sizes.
Inflammation is a factor that stimulates cell migration and is associated with a wide range of ailments including cancer (29). Inflammatory PGE2 produced by mPGES-1 has been reported to be directly associated with cancer cell migration and development (30-33). […] After 39 hours of culture, the gaps were measured (FIG. 10A) and quantified (FIG. 10B and FIG. 10C). […]

For “2-[4-(trimethyl) phenyl]-1,3-benzoxazol-5-amine [3-Methyl]”, the “inhibition of inflammatory PGE2 production” value (COX-2-10aa-mPGES-1) was “able to inhibit inflammatory PGE2 production with very similar dose-response concentrations of the COX-2 inhibitor” and the “inhibition of cancer cell migration within the gaps” value (PC-3 cells) was “very effective inhibition of cancer cell migration”.

With `Nc1ccc2oc(-c3ccc(C(F)(F)F)cc3)nc2c1` [3-F, 2-[4-(trifluoromethyl)phenyl]-1,3-benzoxazol-5-amine] the “inhibition of inflammatory PGE2 production” value (COX-2-10aa-mPGES-1) was “able to inhibit inflammatory PGE2 production with very similar dose-response concentrations of the COX-2 inhibitor” and the “inhibition of cancer cell migration within the gaps” value (PC-3 cells) was “very effective inhibition of cancer cell migration”.
